Values of other authors as cited in paper PMC3819103 (Magnetic resonance in medicine : official journal of the …, 2010).

System: blood-brain barrier

Substance: β-Ala(Mys)-Arg-Arg-Arg-Arg-Arg-Arg-Arg-Cys-NH2 [MPAP]
- Ability to cross the blood-brain barrier and localization: could cross the blood-brain barrier, followed by localization to the cytoplasm
- Delivery of a near-infrared dye across the blood-brain barrier (earlier studies): can deliver a near-infrared dye across the blood-brain barrier
